Experimental data reported in patent US20030130280A1, “Treatment of acute myeloid leukemia with indolinone compounds” (SUGEN, Inc., priority 2001, published 2003).

How the values were obtained:
Wild-type FLT-3 = target: T1, Wild-type FLT-3 (Homo sapiens, UniProt P36888); experiment: FLT-3 phosphorylation by immunoprecipitation/Western in RS411 cells; type: cell-based; details: for Wild-type FLT-3 (inhibition of phosphorylation): RS411 cells, IP/Western; as to Wild-type FLT-3 (inhibition of phosphorylation): key: +++: very strong inhibition; ++: inhibition; +/−: weak inhibition; −: no inhibition
T1 construct: host or cells: RS411 (RS4;11)
T1 sequence (P36888 27-993): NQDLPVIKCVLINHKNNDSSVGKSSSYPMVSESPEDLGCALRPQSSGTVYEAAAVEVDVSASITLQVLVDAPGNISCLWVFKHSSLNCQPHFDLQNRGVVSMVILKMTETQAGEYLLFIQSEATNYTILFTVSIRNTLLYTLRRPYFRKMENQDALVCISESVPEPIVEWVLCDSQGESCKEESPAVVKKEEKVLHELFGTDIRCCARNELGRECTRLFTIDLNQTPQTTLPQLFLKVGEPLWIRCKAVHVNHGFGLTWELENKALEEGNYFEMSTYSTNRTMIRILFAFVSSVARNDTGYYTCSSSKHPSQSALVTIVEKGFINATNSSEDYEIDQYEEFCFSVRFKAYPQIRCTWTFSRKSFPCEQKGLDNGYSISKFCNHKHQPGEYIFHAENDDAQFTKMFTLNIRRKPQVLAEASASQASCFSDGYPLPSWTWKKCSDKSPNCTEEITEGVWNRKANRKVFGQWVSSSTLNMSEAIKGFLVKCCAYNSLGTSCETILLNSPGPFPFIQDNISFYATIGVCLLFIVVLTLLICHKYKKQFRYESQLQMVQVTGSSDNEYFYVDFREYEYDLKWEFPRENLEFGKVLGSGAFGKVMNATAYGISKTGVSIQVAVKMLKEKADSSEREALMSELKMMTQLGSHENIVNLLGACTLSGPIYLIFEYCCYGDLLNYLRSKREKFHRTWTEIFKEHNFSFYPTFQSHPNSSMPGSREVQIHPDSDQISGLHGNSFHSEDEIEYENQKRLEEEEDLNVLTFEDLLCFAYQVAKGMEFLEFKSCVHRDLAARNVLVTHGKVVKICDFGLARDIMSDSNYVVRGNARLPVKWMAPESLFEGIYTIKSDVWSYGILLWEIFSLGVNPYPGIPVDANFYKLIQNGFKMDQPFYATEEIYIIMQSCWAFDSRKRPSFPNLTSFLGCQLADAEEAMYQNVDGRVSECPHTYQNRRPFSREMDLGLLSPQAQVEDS
Procedure: FLT-3 was immunoprecipitated from lysates with a commercially available antibody. Proteins were separated by SDS-polyacrylamide gel electrophoresis, transferred to membranes analyzed by Western blotting for phosphotyrosine and subsequently for total FLT-3 protein as control. […]
(§1) Immunoprecipitation and Western Blot (IP/W) analysis: Cells were lysed in lysis buffer (20 mM Tris, pH 7.5; 137 mM NaCl; 10% glycerol; 1% NP-40; 0.1% SDS; 2 mM EDTA) containing protease and phosphatase inhibitors (50 mM sodium fluoride, 1 mM sodium orthovanadate, 2 mM Pefabloc, […], […], […], 4 mM leupeptin, and 4 mM pepstatin A). Equivalent amounts of protein were separated by SDS-PAGE, then transferred to nitrocellulose membranes. For analysis of FLT3 phosphorylation, equivalent amounts of protein from each sample were immunoprecipitated overnight at 4*C. with an agarose-conjugated anti-FLT3 antibody (Santa Cruz Biotechnology, Santa Cruz, Calif.). Immune complexes were washed (150 mM NaCl, 1.5 mM MgCl2, 50 mM HEPES, pH 7.5, 10% glycerol, 0.1% Triton X-100, and 1 mM EGTA) and following SDS-PAGE, proteins were transferred to nitrocellulose membranes. Membranes were probed with an anti-phosphotyrosine antibody (Upstate, Lake Placid, N.Y. or Transduction Laboratories, Lexington, Ky.) and then stripped with Restore Western Blot Stripping Buffer (Pierce, Rockford, Ill.). Membranes were reprobed with an anti-FLT3 antibody (Santa Cruz Biotechnology). Stat5 antibodies for immunprecipitation and Western blot analysis were from Upstate Biotechnology and Transduction labs respectively.

Mutant FLT-3 (ITD) = target: T2, Mutant FLT-3 (ITD) (Homo sapiens, UniProt P36888, INS600HVDFREYEYD); experiment: FLT-3 phosphorylation by immunoprecipitation/Western in MV411 cells; type: cell-based; details: for Mutant FLT-3 (inhibition of phosphorylation): MV411 cells, IP/Western; as to Mutant FLT-3 (inhibition of phosphorylation): key: +++: very strong inhibition; ++: inhibition; +/−: weak inhibition; −: no inhibition
T2 sequence (P36888 27-993 INS600HVDFREYEYD): T1 sequence (P36888 27-993)
Procedure: FLT-3 was immunoprecipitated from lysates with a commercially available antibody. Proteins were separated by SDS-polyacrylamide gel electrophoresis, transferred to membranes analyzed by Western blotting for phosphotyrosine and subsequently for total FLT-3 protein as control.
The comparative example is a known protein kinase inhibitor having the following formula: [drawing 18]
as §1

Row | Compound | Wild-type FLT-3 (inhibition of phosphorylation) (Wild-type FLT-3) | inhibition of wild-type FLT-3 phosphorylation (Wild-type FLT-3; in words) | Mutant FLT-3 (inhibition of phosphorylation) (Mutant FLT-3 (ITD)) | inhibition of mutant FLT-3 phosphorylation (Mutant FLT-3 (ITD); in words)
1 | Cc1[nH]c(/C=C2\C(=O)Nc3ccccc32)c(C)c1CCC(=O)O [Comparative, reference compound] | − | no inhibition | − | no inhibition
2 | Cc1[nH]c(C=C2C(=O)Nc3ccc(F)cc32)c(C)c1C(=O)NCCN1CCOCC1 [Compound 3, 5-(5-Fluoro-2-oxo-1,2-dihydro-indol-3-ylidenemethyl)-2,4-dimethyl-1H-pyrrole-3-carboxylic acid(2-morpholin-4-yl-ethyl)-amide] | +/− |  |  | 
3 | Cc1[nH]c(C=C2C(=O)Nc3ccc(Cl)cc32)c(C)c1C(=O)NCC(O)CN1CCOCC1 (stereo not drawn) [Compound 7, 5-(5-Chloro-2-oxo-1,2-dihydro-indol-3-ylidenemethyl)-2,4-dimethyl-1H-pyrrole-3-carboxylic acid(2-hydroxy-3-morpholin-4-yl-propyl)-amide] | ++ |  |  | 
4 | Cc1[nH]c(/C=C2\C(=O)Nc3ccc(F)cc32)c(C)c1C(=O)N1CCC(N2CCOCC2)CC1 [Compound 9, 3-[3,5-dimethyl-4-(4-morpholin-4-yl-piperidine-1-carbonyl)-1H-pyrrol-2-methylene]-5-fluoro-1,3-dihydro-indol-2-one] | ++ |  |  | 
5 | CCNCCNC(=O)c1c(C)[nH]c(C=C2C(=O)Nc3ccc(F)cc32)c1C [Compound 8, 5-(5-Fluoro-2-oxo-1,2-dihydro-indol-3-ylidenemethyl)-2,4-dimethyl-1H-pyrrole-3-carboxylic acid(2-ethylamino-ethyl)-amide] | ++ |  |  | 
6 | Cc1[nH]c(C=C2C(=O)Nc3ccc(F)cc32)c(C)c1C(=O)NCCN1CCCC1 [Compound 2, 5-(5-Fluoro-2-oxo-1,2-dihydro-indol-3-ylidenemethyl)-2,4-dimethyl-1H-pyrrole-3-carboxylic acid(2-pyrrolidin-1-yl-ethyl)-amide] | ++ |  | ++ | 
7 | Cc1cc(CCC(=O)O)c(C=C2C(=O)Nc3ccccc32)[nH]1 [Compound 10, 3-[5-methyl-2-(2-oxo-1,2-dihydro-indol-3-ylidenemethyl)-1H-pyrrol-3-yl]-propionic acid] | +/− |  | − | 
